What is called IC50 is the concentration at which inhibition is half-maximal. A lower IC50 goes with inhibition by little substance.

The structures appear in SMILES notation.

The values that follow come from US12583849B2, “KCNT1 inhibitors and methods of use” (Praxis Precision Medicines, Inc., priority 2020, dated 2026).

In the experiment the target is T1, KCNT1 (KNa1.1, Slack) (Homo sapiens, UniProt Q5JUK3).
T1 construct: expressed in transfected cells; host or cells: HEK-TREX (tetracycline-inducible cell line)
T1 sequence (Q5JUK3 1-1230): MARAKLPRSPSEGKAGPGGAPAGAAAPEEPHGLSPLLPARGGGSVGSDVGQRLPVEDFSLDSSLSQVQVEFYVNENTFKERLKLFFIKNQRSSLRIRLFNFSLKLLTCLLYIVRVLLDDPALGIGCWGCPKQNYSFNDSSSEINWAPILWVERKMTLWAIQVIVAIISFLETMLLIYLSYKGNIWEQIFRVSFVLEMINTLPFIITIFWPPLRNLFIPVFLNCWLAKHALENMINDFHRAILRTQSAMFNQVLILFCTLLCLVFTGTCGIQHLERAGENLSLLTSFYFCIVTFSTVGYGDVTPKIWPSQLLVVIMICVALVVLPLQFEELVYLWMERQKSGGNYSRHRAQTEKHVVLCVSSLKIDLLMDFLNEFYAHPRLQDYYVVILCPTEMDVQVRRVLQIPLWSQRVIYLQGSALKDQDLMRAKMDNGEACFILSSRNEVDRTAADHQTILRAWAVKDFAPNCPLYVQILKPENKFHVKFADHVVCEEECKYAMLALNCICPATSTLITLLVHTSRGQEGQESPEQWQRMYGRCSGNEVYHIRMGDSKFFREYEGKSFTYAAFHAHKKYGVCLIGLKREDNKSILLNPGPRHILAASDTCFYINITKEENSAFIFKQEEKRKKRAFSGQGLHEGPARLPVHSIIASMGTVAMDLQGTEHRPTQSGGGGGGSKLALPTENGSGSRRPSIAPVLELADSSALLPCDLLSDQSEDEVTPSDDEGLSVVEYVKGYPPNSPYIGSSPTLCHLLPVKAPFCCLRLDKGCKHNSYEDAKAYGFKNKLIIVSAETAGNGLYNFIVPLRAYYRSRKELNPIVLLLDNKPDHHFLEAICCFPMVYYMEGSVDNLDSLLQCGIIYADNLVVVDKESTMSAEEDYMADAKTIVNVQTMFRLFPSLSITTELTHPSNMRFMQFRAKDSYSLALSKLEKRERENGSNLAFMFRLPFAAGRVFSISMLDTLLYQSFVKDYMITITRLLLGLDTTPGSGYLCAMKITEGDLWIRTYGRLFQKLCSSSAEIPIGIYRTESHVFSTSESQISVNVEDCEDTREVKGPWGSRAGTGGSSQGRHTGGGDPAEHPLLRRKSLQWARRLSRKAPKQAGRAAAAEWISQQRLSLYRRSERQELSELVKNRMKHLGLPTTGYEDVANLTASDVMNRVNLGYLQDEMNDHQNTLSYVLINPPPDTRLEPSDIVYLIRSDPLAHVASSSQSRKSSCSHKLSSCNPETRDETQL
The experiment is described as follows: KCNT1-WT-Basal Patch Clamp Assay. The conditions noted are these: tetracycline inducible cell line (HEK-TREX); SyncroPatch 384PE automated patch clamp, perforated patch mode, room temperature, step from -80 mV to 0 mV. The class given is cell-based. Here is the method:
KCNT1-WT-Basal—Patch Clamp Assay
Inhibition of KCNT1 (KNa1.1, Slack) was evaluated using a tetracycline inducible cell line (HEK-TREX). Currents were recorded using the SyncroPatch 384PE automated, patch clamp system. Pulse generation and data collection were performed with PatchController384 V1.3.0 and DataController384 V1.2.1 (Nanion Technologies). The access resistance and apparent membrane capacitance were estimated using built-in protocols. Current were recorded in perforated patch mode (10 μM escin) from a population of cells. The cells were lifted, triturated, and resuspended at 800,000 cells/ml. The cells were allowed to recover in the cell hotel prior to experimentation. Currents were recorded at room temperature. The external solution contained the following (in mM): NaCl 105, NMDG 40, KCl 4, MgCl2 1, CaCl2 5 and HEPES 10 (pH=7.4, Osmolarity ˜300 mOsm). The extracellular solution was used as the wash, reference and compound delivery solution. The internal solution contained the following (in mM): NaCl 70, KF 70, KCl 10, EGTA 5, HEPES 5 and Escin 0.01 (pH=7.2, Osmolarity ˜295 mOsm). Escin is made at a 5 mM stock in water, aliquoted, and stored at −20° C. The compound plate was created at 2× concentrated in the extracellular solution. The compound was diluted to 1:2 when added to the recording well. The amount of DMSO in the extracellular solution was held constant at the level used for the highest tested concentration. A holding potential of −80 mV with a 100 ms step to 0 mV was used. Mean current was measured during the step to 0 mV. […] The average mean current from 3 sweeps was calculated and the % inhibition of each compound was calculated. The % Inhibition as a function of the compound concentration was fit with a Hill equation to derive IC50, slope, min and max parameters. If KCNT1 inhibition was less than 50% at the highest tested concentration or if an IC50 could not be calculated, then a percent inhibition was reported in place of the IC50.
In this table, “A” indicates IC50 of less than or equal to 1 μM; “B” indicates inhibition of between 1 μM to 20 μM; and “C” indicates inhibition of greater than or equal to 20 μM.
A general note: In patch-clamp work, channel activity is measured electrically.

With `Cc1oncc1C(=O)N[C@@H](C)c1nc(-c2ccnc(C(F)(F)F)c2)no1` [Compound I-21, (S)-5-methyl-N-(1-(3-(2-(trifluoromethyl)pyridin-4-yl)-1,2,4-oxadiazol-5-yl)ethyl)isoxazole-4-carboxamide], the IC50 was in the range of 1000 to 20000 nM.

Take `C[C@H](NC(=O)C1CCC(C)(C)CC1)c1nc(-c2ccnc(C(F)(F)F)c2)no1` [Compound I-67, (S)-4,4-dimethyl-N-(1-(3-(2-(trifluoromethyl)pyridin-4-yl)-1,2,4-oxadiazol-5-yl)ethyl)cyclohexane-1-carboxamide]: the IC50 was not above 1000 nM. As to `C[C@H](NC(=O)C1CCCCC1)c1nc(-c2ccnc(C(F)(F)F)c2)no1` [Compound I-9], the IC50 is not above 1000 nM. Under `CC(C)Oc1cc(-c2noc([C@H](C)NC(=O)C3CCCC3)n2)ccn1` [Compound I-46, (S)—N-(1-(3-(2-isopropoxypyridin-4-yl)-1,2,4-oxadiazol-5-yl)ethyl)cyclopentane-carboxamide] stands not above 1000 nM; under `C[C@H](NC(=O)c1cccc(S(C)(=O)=O)c1)c1nc(-c2ccnc(C3CC3)c2)no1` [Compound I-92, (S)—N-(1-(3-(2-cyclopropylpyridin-4-yl)-1,2,4-oxadiazol-5-yl)ethyl)-3-(methylsulfonyl)benzamide], not above 1000 nM; under `CCOc1cc(-c2noc([C@H](C)NC(=O)c3ccccc3)n2)ccn1` [Compound I-44, (S)—N-(1-(3-(2-ethoxypyridin-4-yl)-1,2,4-oxadiazol-5-yl)ethyl)benzamide], not above 1000 nM. Compound `C[C@H](NC(=O)c1c[nH]c(C(F)(F)F)n1)c1nc(-c2ccnc(C(F)(F)F)c2)no1` [Compound I-4, (S)-2-(trifluoromethyl)-N-(1-(3-(2-(trifluoromethyl)pyridin-4-yl)-1,2,4-oxadiazol-5-yl)ethyl)-1H-imidazole-4-carboxamide] showed an IC50 not below 20000 nM.

`C[C@H](NC(=O)CC(F)(F)F)c1nc(-c2ccnc(C(F)(F)F)c2)no1` [III-2, (S)-3,3,3-trifluoro-N-(1-(3-(2-(trifluoromethyl)pyridin-4-yl)-1,2,4-oxadiazol-5-yl)ethyl)propenamide] registered an IC50 of 1000 to 20000 nM. Take `Cc1c(C(=O)NC(C)c2nc(-c3cccc(F)c3)no2)nc2ccccn12` (centres unmarked) [Compound I-49, N-[1-[3-(3-fluorophenyl)-1,2,4-oxadiazol-5-yl]ethyl]-3-methyl-imidazo[1,2-a]pyridine-2-carboxamide]: the IC50 was not below 20000 nM.

In turn, `Cc1cc(C(=O)N[C@@H](C)c2nc(-c3ccnc(C4CC4)c3)no2)ccn1` [Compound I-101, (S)—N-(1-(3-(2-cyclopropylpyridin-4-yl)-1,2,4-oxadiazol-5-yl)ethyl)-2-methyl isonicotinamide] gave an IC50 not above 1000 nM. Turning to `CC(C)Oc1cc(-c2noc([C@H](C)NC(=O)N3CCOc4ccccc43)n2)ccn1` [II-4], the IC50 was not above 1000 nM. With `C[C@H](NC(=O)c1ccccn1)c1nc(-c2ccnc(C(F)(F)F)c2)no1` [Compound I-7, (S)—N-(1-(3-(2-(trifluoromethyl)pyridin-4-yl)-1,2,4-oxadiazol-5-yl)ethyl)picolinamide], the IC50 was not below 20000 nM. On to `COc1ccc(C(=O)N[C@@H](C)c2nc(-c3ccnc(C4CC4)c3)no2)cc1` [Compound I-61, (S)—N-(1-(3-(2-cyclopropylpyridin-4-yl)-1,2,4-oxadiazol-5-yl)ethyl)-4-methoxybenzamide], for which the IC50 is not above 1000 nM.

`C[C@H](NC(=O)C1CCC(O)CC1)c1nc(-c2ccnc(C(F)(F)F)c2)no1` (single isomer, unassigned) [Compound I-78] displayed an IC50 not below 20000 nM.

In turn, `C[C@H](NC(=O)c1cccc(F)c1)c1nc(-c2ccnc(C3CC3)c2)no1` [Compound I-89, (S)—N-(1-(3-(2-cyclopropylpyridin-4-yl)-1,2,4-oxadiazol-5-yl)ethyl)-3-fluorobenzamide] gave an IC50 not above 1000 nM. As to `Cc1nc(C)c(C(=O)N[C@H](C)c2nc(-c3cccc(F)c3)no2)s1` [Compound I-37, (R)—N-(1-(3-(3-fluorophenyl)-1,2,4-oxadiazol-5-yl)ethyl)-2,4-dimethylthiazole-5-carboxamide], the 50% inhibitory concentration (IC50) was in the range of 1000 to 20000 nM. The same measure for `CC1CCCC1C(=O)N[C@@H](C)c1nc(-c2ccnc(C(F)(F)F)c2)no1` (stereo partly drawn) [Compound I-30, 2-methyl-N—((S)-1-(3-(2-(trifluoromethyl)pyridin-4-yl)-1,2,4-oxadiazol-5-yl)ethyl)cyclopentane-1-carboxamide]: 1000 to 20000 nM; for `C[C@H](NC(=O)Cc1ccccc1)c1nc(-c2ccnc(C(F)(F)F)c2)no1` [Compound I-13, (S)-2-phenyl-N-(1-(3-(2-(trifluoromethyl)pyridin-4-yl)-1,2,4-oxadiazol-5-yl)ethyl)acetamide]: 1000 to 20000 nM; for `C[C@H](NC(=O)c1ccnc(C(F)(F)F)c1)c1nc(-c2ccnc(C(F)(F)F)c2)no1` [Compound I-14, (S)-2-(trifluoromethyl)-N-(1-(3-(2-(trifluoromethyl)pyridin-4-yl)-1,2,4-oxadiazol-5-yl)ethyl)isonicotinamide]: not above 1000 nM.

In the case of `C[C@H](NC(=O)C(C)(C)C)c1nc(-c2ccnc(C3CC3)c2)no1` [III-5], the IC50 is not above 1000 nM.

`CC(C)Oc1cc(-c2noc([C@H](C)NC(=O)c3ccccc3)n2)ccn1` [Compound I-43, (S)—N-(1-(3-(2-isopropoxypyridin-4-yl)-1,2,4-oxadiazol-5-yl)ethyl)benzamide]: the concentration for half-maximal inhibition (IC50) was not above 1000 nM. In the case of `C[C@H](NC(=O)[C@@H]1CCC(=O)N1)c1nc(-c2ccnc(C(F)(F)F)c2)no1` [Compound I-54, (S)-5-oxo-N—((S)-1-(3-(2-(trifluoromethyl)pyridin-4-yl)-1,2,4-oxadiazol-5-yl)ethyl)pyrrolidine-2-carboxamide], the half-maximal inhibitory concentration (IC50) is not below 20000 nM. `C[C@H](NC(=O)C1CC(F)(F)C1)c1nc(-c2ccnc(C(F)(F)F)c2)no1` [Compound I-2, (S)-3,3-difluoro-N-(1-(3-(2-(trifluoromethyl)pyridin-4-yl)-1,2,4-oxadiazol-5-yl)ethyl)cyclobutane-1-carboxamide] registered an IC50 of 1000 to 20000 nM. The compound `CCn1nc(C)c(C(=O)N[C@@H](C)c2nc(-c3cccc(F)c3)no2)n1` [Compound I-40, (S)-2-ethyl-N-(1-(3-(3-fluorophenyl)-1,2,4-oxadiazol-5-yl)ethyl)-5-methyl-2H-1,2,3-triazole-4-carboxamide] returned a half-maximal inhibitory concentration (IC50) of 1000 to 20000 nM. On to `C[C@H](NC(=O)N1CCc2ccccc2C1)c1nc(-c2ccnc(C(F)(F)F)c2)no1` [II-11], for which the 50% inhibitory concentration (IC50) was not above 1000 nM. Take `CCOc1cc(-c2noc([C@H](C)NC(=O)C3CCCC3)n2)ccn1` [Compound I-45, (S)—N-(1-(3-(2-ethoxypyridin-4-yl)-1,2,4-oxadiazol-5-yl)ethyl)cyclopentanecar-boxamide]: the IC50 is not above 1000 nM.
